Square brackets hold non-standard residues; d marks the D form. Peptide text beside a SMILES is read from it. Nle = CCCC[C@H](N)C(=O)O; Orn = NCCC[C@H](N)C(=O)O

What is called inhibition is the change of the read-out against control, counted positive when it falls. Higher therefore signals a response far below the control.

The target in the experiment is T1, NK-2 receptor (Oryctolagus cuniculus, UniProt P79218).
T1 construct: This preparation is isolated rabbit pulmonary artery, in which tachykinins produce dose-related contraction; from tissue; host or cells: isolated rabbit pulmonary artery
T1 sequence (P79218 1-384): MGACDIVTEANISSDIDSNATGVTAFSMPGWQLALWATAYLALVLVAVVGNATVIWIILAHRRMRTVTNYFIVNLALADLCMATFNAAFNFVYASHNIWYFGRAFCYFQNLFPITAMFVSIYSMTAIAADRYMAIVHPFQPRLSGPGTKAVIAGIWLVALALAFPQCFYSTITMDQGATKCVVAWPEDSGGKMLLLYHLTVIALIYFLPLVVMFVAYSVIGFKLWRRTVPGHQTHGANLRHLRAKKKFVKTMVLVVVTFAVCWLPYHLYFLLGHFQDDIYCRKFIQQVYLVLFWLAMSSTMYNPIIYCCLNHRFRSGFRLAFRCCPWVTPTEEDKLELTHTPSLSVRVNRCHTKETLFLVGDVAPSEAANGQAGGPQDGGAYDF
Kind of experiment: Antagonism of NKA-induced contraction in isolated rabbit pulmonary artery. Type of experiment: cell-based. Particulars: inhibition of the response to NKA (3 nM), 10⁻⁶M concentration of each compound. The method, then:
The ability of the peptides described in the present invention to interact with the neurokinin A receptor as agonists or antagonists was evaluated in an in-vitro study using a preparation in which the biological response produced by tachykinins and related peptides is determined exclusively from the neurokinin A receptor (NK-2 receptor). This preparation is isolated rabbit pulmonary artery, in which tachykinins produce dose-related contraction (Rovero et al., Neuropeptides, 1989, 13: 263-270). The activity of the peptides in this preparation was determined using a concentration of NKA (3 nM) that produces a response equivalent to 45% of the maximum. The peptides that are the subject of the present application were added to the preparation in increasing concentrations and their activity evaluated in terms of inhibition of the response to NKA.
Antagonist biological activity on the NK-2 receptor in isolated rabbit pulmonary artery of the peptides described.
Turning to `CC(C)[C@@H]1NC(=O)[C@@H](Cc2c[nH]c3ccccc23)NC(=O)[C@H](Cc2ccc(O)cc2)NC(=O)[C@H](CC(=O)O)NC(=O)[C@H](CCCNC(=N)N)NC(=O)[C@@H](Cc2c[nH]c3ccccc23)NC(=O)[C@@H](Cc2c[nH]c3ccccc23)NC1=O` [Cyclo[AspTyrDTrpValDTrpDTrpArg], cyclo[AspTyrDTrpValDTrpDTrpArg]] (cyclo(DY[dW]V[dW][dW]R)), the inhibition came out at 95%.
For `CC(C)C[C@H](NC(=O)[C@@H](Cc1c[nH]c2ccccc12)NC(=O)[C@@H](Cc1c[nH]c2ccccc12)NC(=O)[C@@H](NC(=O)[C@@H](Cc1c[nH]c2ccccc12)NC(=O)[C@H](Cc1ccc(O)cc1)NC(=O)[C@@H](N)CC(=O)O)C(C)C)C(N)=O` [H-Asp-Tyr-DTrp-Val-DTrp-DTrp-Leu-NH₂] (H-DY[dW]V[dW][dW]L-NH2) the value was 100%; for `CC(C)[C@H](NC(=O)[C@@H](Cc1c[nH]c2ccccc12)NC(=O)[C@H](Cc1ccc(O)cc1)NC(=O)[C@@H](N)CC(=O)O)C(=O)N[C@H](Cc1c[nH]c2ccccc12)C(=O)N[C@H](Cc1c[nH]c2ccccc12)C(=O)N[C@@H](CCC(=O)O)C(N)=O` [H-Asp-Tyr-DTrp-Val-DTrp-DTrp-Glu-NH₂] (H-DY[dW]V[dW][dW]E-NH2), 100%.
`CCCC[C@H](NC(=O)[C@@H](Cc1c[nH]c2ccccc12)NC(=O)[C@@H](Cc1c[nH]c2ccccc12)NC(=O)[C@@H](NC(=O)[C@@H](Cc1c[nH]c2ccccc12)NC(=O)[C@H](Cc1ccc(O)cc1)NC(=O)[C@@H](N)CC(=O)O)C(C)C)C(N)=O` [H-Asp-Tyr-DTrp-Val-DTrp-DTrp-Nle-NH₂] (H-DY[dW]V[dW][dW][Nle]-NH2) gave an inhibition of 100%.
For `CC(C)[C@@H]1NC(=O)[C@@H](Cc2c[nH]c3ccccc23)NC(=O)[C@H](Cc2ccc(O)cc2)NC(=O)[C@H](CC(=O)O)NC(=O)[C@H](CCCCN)NC(=O)[C@@H](Cc2c[nH]c3ccccc23)NC(=O)[C@@H](Cc2c[nH]c3ccccc23)NC1=O` [Cyclo[AspTyrDTrpValDTrpDTrpLys], cyclo[AspTyrDTrpValDTrpDTrpLys]] (cyclo(DY[dW]V[dW][dW]K)) the value was 95%; for `CC(C)[C@H](NC(=O)[C@@H](Cc1c[nH]c2ccccc12)NC(=O)[C@H](Cc1ccc(O)cc1)NC(=O)[C@@H](N)CC(=O)O)C(=O)N[C@H](Cc1c[nH]c2ccccc12)C(=O)N[C@H](Cc1c[nH]c2ccccc12)C(=O)NCC(N)=O` [H-Asp-Tyr-DTrp-Val-DTrp-DTrp-Gly-NH₂] (H-DY[dW]V[dW][dW]G-NH2), 100%.
For `CC(C)[C@H](NC(=O)[C@@H](Cc1c[nH]c2ccccc12)NC(=O)[C@H](Cc1ccc(O)cc1)NC(=O)[C@@H](N)CC(=O)O)C(=O)N[C@H](Cc1c[nH]c2ccccc12)C(=O)N[C@H](Cc1c[nH]c2ccccc12)C(=O)N[C@@H](CCCCN)C(N)=O` [H-Asp-Tyr-DTrp-Val-DTrp-DTrp-Lys-NH₂] (H-DY[dW]V[dW][dW]K-NH2), the inhibition turned out to be 100%.
`CC(C)[C@H](NC(=O)[C@@H](Cc1c[nH]c2ccccc12)NC(=O)[C@H](Cc1ccc(O)cc1)NC(=O)[C@@H](N)CC(=O)O)C(=O)N[C@H](Cc1c[nH]c2ccccc12)C(=O)N[C@H](Cc1c[nH]c2ccccc12)C(=O)N[C@@H](C)C(N)=O` [H-Asp-Tyr-DTrp-Val-DTrp-DTrp-Ala-NH₂] (H-DY[dW]V[dW][dW]A-NH2) returned an inhibition of 100%.
For `CC(C)[C@H](NC(=O)[C@@H](Cc1c[nH]c2ccccc12)NC(=O)[C@H](Cc1ccc(O)cc1)NC(=O)[C@@H](N)CC(=O)O)C(=O)N[C@H](Cc1c[nH]c2ccccc12)C(=O)N[C@H](Cc1c[nH]c2ccccc12)C(=O)N[C@@H](CCCN)C(N)=O` [H-Asp-Tyr-DTrp-Val-DTrp-DTrp-Orn-NH₂] (H-DY[dW]V[dW][dW][Orn]-NH2) the value was 100%.

For the origin of these results see EP0541662B1, “SYNTHETIC PEPTIDES THAT ANTAGONIZE NEUROKININ A, THEIR SALTS AND THEIR MANUFACTURING PROCESSES” (A. MENARINI INDUSTRIE FARMACEUTICHE RIUNITE S.R.L., priority 1990, dated 1992).
